What was measured:
[1] = molecular target: T1, Ephrin type-A receptor 1 (Homo sapiens) (UniProt P21709); assay: Residual activity of human EPHA1 using poly[Glu:Tyr] (4:1) as substrate at 1 uM in presence of 32P-ATP by Hotspot assay relative to control
T1 sequence (whole entry): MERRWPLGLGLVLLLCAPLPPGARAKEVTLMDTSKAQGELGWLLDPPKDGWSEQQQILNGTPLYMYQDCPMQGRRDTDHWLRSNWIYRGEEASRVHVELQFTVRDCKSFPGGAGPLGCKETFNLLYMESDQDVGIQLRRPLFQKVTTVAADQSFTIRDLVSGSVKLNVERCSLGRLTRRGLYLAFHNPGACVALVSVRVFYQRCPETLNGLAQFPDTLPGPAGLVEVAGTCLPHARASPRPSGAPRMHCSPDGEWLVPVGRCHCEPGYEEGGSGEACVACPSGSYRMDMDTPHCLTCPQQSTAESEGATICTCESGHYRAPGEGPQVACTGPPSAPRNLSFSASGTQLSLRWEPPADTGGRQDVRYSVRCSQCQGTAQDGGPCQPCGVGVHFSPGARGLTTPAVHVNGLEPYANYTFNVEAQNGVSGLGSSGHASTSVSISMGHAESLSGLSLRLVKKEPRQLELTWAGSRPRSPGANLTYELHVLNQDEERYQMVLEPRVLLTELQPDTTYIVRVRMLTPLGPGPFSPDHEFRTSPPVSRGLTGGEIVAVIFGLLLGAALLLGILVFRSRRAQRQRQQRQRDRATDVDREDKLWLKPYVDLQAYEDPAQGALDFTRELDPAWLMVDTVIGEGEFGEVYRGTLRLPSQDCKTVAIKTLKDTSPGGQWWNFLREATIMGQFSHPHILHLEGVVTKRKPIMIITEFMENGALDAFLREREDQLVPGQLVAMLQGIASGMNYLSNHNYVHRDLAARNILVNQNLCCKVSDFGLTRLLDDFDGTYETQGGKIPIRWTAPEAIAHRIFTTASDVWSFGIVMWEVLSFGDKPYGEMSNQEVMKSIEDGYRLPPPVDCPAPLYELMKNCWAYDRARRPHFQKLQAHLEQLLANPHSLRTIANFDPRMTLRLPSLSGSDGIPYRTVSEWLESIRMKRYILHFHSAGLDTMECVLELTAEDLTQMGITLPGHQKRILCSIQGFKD

[2] = molecular target: Calcium/calmodulin-dependent protein kinase type 1D (Homo sapiens) (UniProt Q8IU85); assay: Inhibition of human CAMK1d using KKALRRQETVDAL as substrate at 1 uM in presence of 32P-ATP by Hotspot assay relative to control; values are per cent of control
[3] = molecular target: Dual specificity tyrosine-phosphorylation-regulated kinase 1B (Homo sapiens) (UniProt Q9Y463); assay: Inhibition of human DYRK1B using RRRFRPASPLRGPPK as substrate at 1 uM in presence of 32P-ATP by Hotspot assay relative to control; values are per cent of control
[4] = molecular target: Tyrosine-protein kinase BTK (Homo sapiens) (UniProt Q06187); assay: Inhibition of human BTK using poly[Glu:Tyr] (4:1) as substrate at 1 uM in presence of 32P-ATP by Hotspot assay relative to control; values are per cent of control
[5] = molecular target: Tyrosine-protein kinase Lck (Homo sapiens) (UniProt P06239); assay: Inhibition of human LCK using poly[Glu:Tyr] (4:1) as substrate at 1 uM in presence of 32P-ATP by Hotspot assay relative to control; values are per cent of control
[6] = molecular target: Platelet-derived growth factor receptor alpha (Homo sapiens) (UniProt P16234); assay: Inhibition of human PDGFRa using poly[Glu:Tyr] (4:1) as substrate at 1 uM in presence of 32P-ATP by Hotspot assay relative to control; values are per cent of control
[7] = molecular target: T2, Serine/threonine-protein kinase 3 (Homo sapiens) (UniProt Q13188); assay: Inhibition of human MST2/STK3 using myelin basic protein as substrate at 1 uM in presence of 32P-ATP by Hotspot assay relative to control; values are per cent of control
T2 sequence (whole entry): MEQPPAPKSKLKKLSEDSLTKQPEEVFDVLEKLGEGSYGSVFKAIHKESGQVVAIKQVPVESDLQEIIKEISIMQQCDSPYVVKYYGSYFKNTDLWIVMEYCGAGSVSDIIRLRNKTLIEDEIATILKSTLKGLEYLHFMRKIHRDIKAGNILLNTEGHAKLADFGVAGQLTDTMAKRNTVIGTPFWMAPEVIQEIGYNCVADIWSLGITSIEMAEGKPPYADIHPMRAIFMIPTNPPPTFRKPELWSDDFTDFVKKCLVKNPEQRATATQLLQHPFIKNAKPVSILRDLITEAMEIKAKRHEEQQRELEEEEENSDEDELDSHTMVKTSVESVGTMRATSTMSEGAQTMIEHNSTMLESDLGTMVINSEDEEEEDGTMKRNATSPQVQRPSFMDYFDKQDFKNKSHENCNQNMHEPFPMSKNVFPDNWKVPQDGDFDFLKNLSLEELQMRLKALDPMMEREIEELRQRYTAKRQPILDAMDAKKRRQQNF

[8] = molecular target: CDK9/Cyclin K (Homo sapiens) (UniProt P50750+O75909); assay: Inhibition of human CDK9/cyclin K using KTFCGTPEYLAPEVRREPRILSEEEQEMFRDFDYIADWC as substrate at 1 uM in presence of 32P-ATP by Hotspot assay relative to control; values are per cent of control

Sequence of Tyrosine-protein kinase Lck (Homo sapiens) (P06239 2-509 limits assumed): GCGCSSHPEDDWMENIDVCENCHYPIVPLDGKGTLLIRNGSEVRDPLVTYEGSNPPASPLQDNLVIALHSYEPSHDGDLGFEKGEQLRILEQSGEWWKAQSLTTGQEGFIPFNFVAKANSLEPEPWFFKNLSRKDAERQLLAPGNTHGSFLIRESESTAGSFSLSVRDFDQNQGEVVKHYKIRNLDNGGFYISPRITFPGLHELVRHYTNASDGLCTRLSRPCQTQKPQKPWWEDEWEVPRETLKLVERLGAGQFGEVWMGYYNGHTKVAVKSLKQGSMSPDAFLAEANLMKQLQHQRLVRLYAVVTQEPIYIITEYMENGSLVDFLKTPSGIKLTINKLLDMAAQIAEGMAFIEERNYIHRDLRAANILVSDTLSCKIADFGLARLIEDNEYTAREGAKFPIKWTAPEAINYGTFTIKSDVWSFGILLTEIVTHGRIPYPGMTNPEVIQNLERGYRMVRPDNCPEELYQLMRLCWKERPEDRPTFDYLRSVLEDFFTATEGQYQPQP
Sequence of Tyrosine-protein kinase BTK (Homo sapiens) (Q06187 whole entry): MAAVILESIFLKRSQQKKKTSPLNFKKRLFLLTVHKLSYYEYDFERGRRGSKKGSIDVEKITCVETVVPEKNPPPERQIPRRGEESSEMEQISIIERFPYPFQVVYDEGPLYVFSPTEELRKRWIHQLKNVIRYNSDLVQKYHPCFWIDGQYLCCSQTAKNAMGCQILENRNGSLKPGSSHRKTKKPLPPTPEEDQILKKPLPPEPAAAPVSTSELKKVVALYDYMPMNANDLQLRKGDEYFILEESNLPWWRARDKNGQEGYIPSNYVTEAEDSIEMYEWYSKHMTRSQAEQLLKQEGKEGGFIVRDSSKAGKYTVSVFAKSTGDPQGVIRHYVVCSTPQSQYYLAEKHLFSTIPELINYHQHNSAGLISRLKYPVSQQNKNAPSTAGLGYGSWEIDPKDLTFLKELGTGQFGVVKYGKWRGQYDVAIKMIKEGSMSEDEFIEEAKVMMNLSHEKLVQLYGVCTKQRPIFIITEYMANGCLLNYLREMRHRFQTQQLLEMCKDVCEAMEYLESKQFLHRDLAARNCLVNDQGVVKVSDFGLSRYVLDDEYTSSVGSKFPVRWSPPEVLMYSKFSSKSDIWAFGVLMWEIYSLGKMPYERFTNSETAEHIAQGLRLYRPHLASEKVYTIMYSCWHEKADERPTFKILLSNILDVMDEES
Sequence of Calcium/calmodulin-dependent protein kinase type 1D (Homo sapiens) (Q8IU85 whole entry, looked up): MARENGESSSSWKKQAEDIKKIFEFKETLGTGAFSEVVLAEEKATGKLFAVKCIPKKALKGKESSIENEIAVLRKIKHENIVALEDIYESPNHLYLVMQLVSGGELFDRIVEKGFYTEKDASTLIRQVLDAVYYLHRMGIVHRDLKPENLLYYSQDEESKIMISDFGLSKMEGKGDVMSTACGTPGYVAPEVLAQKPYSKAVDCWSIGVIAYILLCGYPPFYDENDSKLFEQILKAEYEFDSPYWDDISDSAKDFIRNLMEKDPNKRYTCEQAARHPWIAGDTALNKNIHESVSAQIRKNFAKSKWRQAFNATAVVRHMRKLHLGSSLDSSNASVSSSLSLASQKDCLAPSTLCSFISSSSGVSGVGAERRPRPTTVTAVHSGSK
Sequence of Platelet-derived growth factor receptor alpha (Homo sapiens) (P16234 whole entry): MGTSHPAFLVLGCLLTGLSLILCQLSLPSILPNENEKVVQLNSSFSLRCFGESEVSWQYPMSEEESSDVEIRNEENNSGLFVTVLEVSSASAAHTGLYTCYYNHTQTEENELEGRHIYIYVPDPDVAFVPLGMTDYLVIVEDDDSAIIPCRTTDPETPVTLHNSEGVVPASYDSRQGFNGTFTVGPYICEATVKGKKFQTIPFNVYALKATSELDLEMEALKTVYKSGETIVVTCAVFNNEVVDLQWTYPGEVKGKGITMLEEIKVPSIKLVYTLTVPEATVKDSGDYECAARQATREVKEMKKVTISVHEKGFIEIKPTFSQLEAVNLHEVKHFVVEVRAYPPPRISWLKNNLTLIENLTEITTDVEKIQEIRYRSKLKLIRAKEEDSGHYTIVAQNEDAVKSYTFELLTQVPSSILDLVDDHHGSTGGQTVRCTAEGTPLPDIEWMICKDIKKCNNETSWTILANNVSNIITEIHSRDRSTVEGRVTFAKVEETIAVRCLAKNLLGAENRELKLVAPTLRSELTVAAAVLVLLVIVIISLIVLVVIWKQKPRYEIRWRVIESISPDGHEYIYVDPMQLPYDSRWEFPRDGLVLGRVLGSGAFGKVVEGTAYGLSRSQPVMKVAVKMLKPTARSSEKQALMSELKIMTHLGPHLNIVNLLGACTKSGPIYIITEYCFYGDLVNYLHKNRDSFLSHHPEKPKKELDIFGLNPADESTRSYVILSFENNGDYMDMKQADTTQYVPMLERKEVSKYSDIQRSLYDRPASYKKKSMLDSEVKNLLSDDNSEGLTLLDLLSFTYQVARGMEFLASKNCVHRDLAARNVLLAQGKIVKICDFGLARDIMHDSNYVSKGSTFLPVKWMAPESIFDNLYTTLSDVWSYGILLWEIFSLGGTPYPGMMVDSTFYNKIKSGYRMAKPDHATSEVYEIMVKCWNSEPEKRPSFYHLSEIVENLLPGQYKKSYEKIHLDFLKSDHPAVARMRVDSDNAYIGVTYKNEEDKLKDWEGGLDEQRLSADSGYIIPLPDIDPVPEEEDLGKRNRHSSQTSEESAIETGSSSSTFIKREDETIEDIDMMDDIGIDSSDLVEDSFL
Sequence of Dual specificity tyrosine-phosphorylation-regulated kinase 1B (Homo sapiens) (Q9Y463 whole entry, looked up): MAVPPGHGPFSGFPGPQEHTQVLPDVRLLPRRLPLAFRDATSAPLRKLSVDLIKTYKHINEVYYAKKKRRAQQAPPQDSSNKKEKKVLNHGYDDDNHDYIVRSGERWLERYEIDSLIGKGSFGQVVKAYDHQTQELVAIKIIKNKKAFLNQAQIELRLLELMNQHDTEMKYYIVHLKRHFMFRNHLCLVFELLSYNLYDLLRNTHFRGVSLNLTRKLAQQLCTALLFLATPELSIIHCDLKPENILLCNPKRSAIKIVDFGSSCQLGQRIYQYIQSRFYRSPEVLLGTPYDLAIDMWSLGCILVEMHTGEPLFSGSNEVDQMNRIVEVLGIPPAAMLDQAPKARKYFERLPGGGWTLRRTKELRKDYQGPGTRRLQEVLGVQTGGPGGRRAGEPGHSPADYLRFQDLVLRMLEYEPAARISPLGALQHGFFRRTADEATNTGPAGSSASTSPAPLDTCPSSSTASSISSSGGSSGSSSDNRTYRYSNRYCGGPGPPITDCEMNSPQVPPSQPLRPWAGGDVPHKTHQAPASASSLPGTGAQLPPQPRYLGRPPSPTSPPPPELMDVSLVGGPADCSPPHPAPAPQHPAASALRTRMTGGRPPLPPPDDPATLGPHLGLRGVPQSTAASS

Structure (SMILES)	residual activity [1]	residual activity [2]	residual activity [3]	residual activity [4]	residual activity [5]	residual activity [6]	residual activity [7]	residual activity [8]
Cc1cc(-c2cnc(N)c3c(-c4ccc5scnc5c4)csc23)n(C)n1	56.5%	97.8%	99.5%	58%	17.3%	9.84%	93.8%	104%
CC(C)S(=O)(=O)c1ccc2nccc(Nc3ccc4scnc4c3)c2c1	53.9%	99%	100%	30.4%	39.4%	74.6%	101%	94.5%
CNC(=O)c1ccc2c(c1)ncn2-c1ccc(CC(=O)OC(C)(C)C)cc1	84.8%	99.1%	98.4%	79.8%	13.1%	32.7%	95.2%	99.6%

Source: ChEMBL document CHEMBL5649166, “RIP3 induces apoptosis independent of pronecrotic kinase activity” (Mol Cell, 2014)
